Experimental data taken from patent publication US20020193425A1, “Cancer chemopreventative compounds and compositions and methods of treating cancers” (priority 2001, published 2002).
Converted amounts (≈) assume the structure as drawn.

Tests used:
Type in all cases: cell-based
[1] = system: DMBA-induced preneoplastic lesion formation in mouse mammary organ culture; experiment: Inhibition of DMBA-induced preneoplastic lesion formation in mouse mammary organ culture (MMOC); settings: Mus musculus; quassinoid (2 μM); in comparison with a DMBA control
Procedure: The identification of potential inhibitors of DMBA-induced preneoplastic lesion formation in mammary organ culture has been described previously. Briefly, four-week old BALB/c female mice (Charles River) were pretreated for nine days with 1 μg estradiol and 1 mg progesterone. The thoracic pair of mammary glands was dissected on silk and incubated with growth-promoting hormones in the presence of test compounds (2 μM) for 10 days. DMBA ([…]) was included in the medium (containing […]) for 24 hours on the third day of culture to induce preneoplastic mammary lesions. Following 10 days of growth promoting phase, all hormones except insulin were withdrawn and the glands were allowed to regress to lobuloalveolar structures during a 14-day incubation period. Glands then were fixed in 10% buffered formalin and stained with alum carmine. Incidence of lesion formation (percentage of glands per group with mammary lesions) was recorded, and percent inhibition was calculated by comparison with the DMBA control group that was not treated with test sample. Active samples induce 60% inhibition, based on historical controls.

[2] = system: HL-60 (human promyelocytic) cells; experiment: HL-60 cell differentiation of quassinoids, NBT reduction; settings: Homo sapiens, HL-60, 96 h, read-out: induction of differentiation (EC50, μM)
Procedure: (§1) Induction of differentiation was determined by the ability of treated cells to produce superoxide anions (nitroblue tetrazolium (NBT)-reduction), a functional marker of mature macrophages or granulocytes. Proliferation capacity is equivalent to cell growth and was measured by incorporation of [3H]thymidine into DNA over a period of 18 h, and cytotoxic activity was evaluated by the loss of membrane integrity as shown by trypan blue exclusion. […] Although members of the brusatol and glaucarubolone series were active, when comparing members of both series that varied only in the positioning of the epoxymethano bridge, great differences were noted, as shown with yadianzolide C (5) and glaucarubolone (24), and analogues 4 (brusatol series) and 32 (glaucarubolone series).
(§2) HL-60 (human promyelocytic) cells were tested using a 4-day incubation protocol. In brief, cells in log phase (approximately 10^6 cells/mL) were diluted to […] and preincubated overnight (18 h) in 24-well plates to allow cell-growth recovery. Then, samples dissolved in DMSO were added, keeping the final DMSO concentration at 0.1% (v/v). Control cultures were treated with the same concentration of DMSO. After 4 days of incubation, the cells were analyzed to determine the percentage of cells undergoing maturation as determined by NBT reduction. Concomitantly, the effect on viability and proliferation of HL-60 cells was determined. In each experiment, 1α, 25-dihydroxyvitamin D3 (EC50=0.01 μM) and brusatol (EC50=0.07 μM) were used as reference controls. EC50 and IC50 values were calculated using 5-7 test concentrations (in duplicate), and consistent results were obtained, indicating the data reported for the related quassinoids are reliable.
(1) Nitroblue Tetrazolium (NBT) Reduction. Evaluation of NBT reduction was used to assess the ability of sample-treated HL-60 cells to produce superoxide when challenged with 12-O-tetradecanoylphorbol 13-acetate (TPA). A 1:1 v/v) mixture of a cell suspension (10^6 cells) and TPA/NBT solution (2 mg/mL NBT and 1 μg/mL TPA in phosphate buffered solution) was incubated for 1 h at 37° C. Positive cells reduce NBT yielding intracellular black-blue formazan deposits, which were quantified by microscopic examination of >200 cells. Results were expressed as a percentage of positive cells.

DHL-6 = experiment: Antiproliferative activity, [3H]thymidine incorporation; settings: four days
Procedure: (§3) Cellular viability was monitored by Trypan blue exclusion.
(§4) ^bproliferation was assayed by [^3H]thymidine incorporation with quadruplicate samples, as described under “Materials and methods”.

Reh = experiment: as above; settings: Homo sapiens, 96 h, four days, read-out: Antiproliferative Activity (IC50, ng/ml)
Procedure: as §3, §4

BV173 = experiment: as above; settings: four days
Procedure: as §3, §4

[3] = system: Peripheral Human Lymphocytes; experiment: as above; settings: Lymphocyte, 72 h, three days, concanavalin A (0.4 μg/ml), read-out: Antiproliferative Activity (IC50, ng/ml)
Procedure: as §3, §4

NB4 = experiment: as above; settings: four days
Procedure: as §3, §4

K562 = experiment: as above; settings: Homo sapiens, 96 h, four days, read-out: Antiproliferative Activity (IC50, ng/ml)
Procedure: as §3, §4

Daudi = experiment: as above; settings: four days
Procedure: as §3, §4

HL-60 = experiment: as above; settings: Homo sapiens, 96 h, four days, read-out: Antiproliferative Activity (IC50, ng/ml)
Procedure: as §3, §4

U937 = experiment: as above; settings: four days
Procedure: as §3, §4

RS4;11 = experiment: as above; settings: Homo sapiens, 96 h, four days, read-out: Antiproliferative Activity (IC50, ng/ml)
Procedure: as §3, §4

Kasumi-1 = experiment: as above; settings: Homo sapiens, 96 h, four days, read-out: Antiproliferative Activity (IC50, ng/ml)
Procedure: as §3, §4

SUPB13 = experiment: as above; settings: 96 h, four days, read-out: Antiproliferative Activity (IC50, ng/ml)
Procedure: as §3, §4

[4] = system: HL-60 (human promyelocytic) cells; experiment: HL-60 cell proliferation assay of quassinoids, [3H]thymidine incorporation; settings: for IC50: Homo sapiens, 4-day incubation, [3H]thymidine incorporation, read-out: inhibition of proliferation (IC50); for selectivity index: ratio of cytotoxic IC50 over antiproliferative IC50
Procedure: as §1, §2
(3) Cell Proliferation Assay. […] Cells were then collected on glass fiber filters (90×120 mm; Wallac, Turku, Finland) using a TOMTEC Harvester 96®.

SMILES: COC(=O)[C@@]12OC[C@]34[C@H]([C@@H](O)[C@@H]1O)[C@@]1(C)CC(=O)C(O)=C(C)[C@@H]1C[C@H]3OC(=O)[C@H](OC(=O)C=C(C)C)[C@@H]24 [compound 1, brusatol]
- inhibition at 2 µM [1]: 70%
- EC50 [2]: 0.07 µM
- Antiproliferative Activity (IC50, ng/ml) (DHL-6): No effect
- IC50 (Reh): 37 ± 5.6 ng/mL (≈ 0.0711 µM)
- Antiproliferative Activity (IC50, ng/ml) (BV173): No effect
- IC50 [3]: 7.5 ± 0.3 ng/mL (≈ 0.0144 µM)
- Antiproliferative Activity (IC50, ng/ml) (NB4): No effect
- IC50 (K562): 10 ± 0.2 ng/mL (≈ 0.0192 µM)
- Antiproliferative Activity (IC50, ng/ml) (Daudi): No effect
- IC50 (HL-60): 25 ± 0.5 ng/mL (≈ 0.048 µM)
- Antiproliferative Activity (IC50, ng/ml) (U937): No effect
- IC50 (RS4;11): 12.5 ± 0.6 ng/mL (≈ 0.024 µM)
- IC50 (Kasumi-1): 7 ± 0.6 ng/mL (≈ 0.0134 µM)
- IC50 (SUPB13): 37 ± 1.9 ng/mL (≈ 0.0711 µM)
- IC50 [4]: 70 ± 7 nM
- selectivity index [4]: 2.5 ± 0.3

SMILES: COC(=O)[C@@]12OC[C@]34[C@H]([C@@H](O)[C@@H]1O)[C@@]1(C)CC(=O)C(O)=C(C)[C@@H]1C[C@H]3OC(=O)[C@H](OC(=O)/C=C(\C)C(C)C)[C@@H]24 [compound 2, bruceantin]
- inhibition at 2 µM [1]: 70%
- EC50 [2]: 0.02 ± 0.002 µM
- Antiproliferative Activity (IC50, ng/ml) (DHL-6): No effect
- IC50 (Reh): 12.5 ± 0.8 ng/mL (≈ 0.0228 µM)
- Antiproliferative Activity (IC50, ng/ml) (BV173): No effect
- IC50 [3]: 3 ± 0.3 ng/mL (≈ 0.00547 µM)
- Antiproliferative Activity (IC50, ng/ml) (NB4): No effect
- IC50 (K562): 6 ± 0.1 ng/mL (≈ 0.0109 µM)
- Antiproliferative Activity (IC50, ng/ml) (Daudi): No effect
- IC50 (HL-60): 20 ± 0.1 ng/mL (≈ 0.0365 µM)
- Antiproliferative Activity (IC50, ng/ml) (U937): No effect
- IC50 (RS4;11): 5.4 ± 0.9 ng/mL (≈ 0.00984 µM)
- IC50 (Kasumi-1): 3.2 ± 0.1 ng/mL (≈ 0.00583 µM)
- IC50 (SUPB13): 10 ± 0.5 ng/mL (≈ 0.0182 µM)
- IC50 [4]: 40 ± 3 nM
- selectivity index [4]: 1.0 ± 0.2
